Assay results published in patent publication US8268827B2, “Pyridazinone derivatives as PARP inhibitors” (Istituto di Ricerche di Biologia Molecolare P. Angeletti …, priority 2007, dated 2012).
Counter-ions that a name gives are not always drawn.

Tested on: BRCA-1 silenced HeLa cells (HeLa shBRCA1-GFP)
Test: Proliferation assay in BRCA-1 silenced HeLa cells
Format: cell-based
Conditions: Homo sapiens; BRCA1 silenced HeLa cells, 168 hours; read-out: CC50 in the BRCA1 silenced HeLa cells
Method in brief: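 HeLa cells with lentiviral shRNA BRCA1 knockdown (>80%), compared with control-vector HeLa, seeded at 300 cells/well. Compound exposure lasted 168 h at 37° C. Viability was read as resazurin-to-resorufin fluorescence (ex 550/em 590 nm).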

| SMILES | CC50 |
| --- | --- |
| Cc1c(Cc2ccc(F)c(C(=O)N3CCN(c4cccc5ccccc45)C(=O)C3)c2)n[nH]c(=O)c1C [Example 43, 3-(4-Fluoro-3-{[4-(1-naphthyl)-3-oxopiperazin-1-yl]carbonyl}benzyl)-4,5-dimethyl-6-oxo-1,6-dihydropyridazin-1-ium trifluoroacetate] | < 50 nM |
| Cc1c(Cc2ccc(F)c(C(=O)N3CC(=O)N(C4CCC(C)(C)CC4)C(C)C3)c2)n[nH]c(=O)c1C (stereo not drawn) [Example 128, 6-(3-{[4-(4,4-Dimethylcyclohexyl)-3-methyl-5-oxopiperazin-1-yl]carbonyl}-4-fluorobenzyl)-4,5-dimethylpyridazin-3(2H)-one trifluoroacetate] | < 50 nM |
| CCN1CCN(C(=O)c2cc(Cc3n[nH]c(=O)c(C(F)(F)F)c3C)ccc2F)CC1=O [Example 105, 3-{3-[(4-Ethyl-3-oxopiperazin-1-yl)carbonyl]-4-fluorobenzyl}-4-methyl-6-oxo-5-(trifluoromethyl)-1,6-dihydropyridazin-1-ium trifluoroacetate] | < 50 nM |
| Cc1c(Cc2ccc(F)c(C(=O)N3CCN([C@@H]4CCOC4)C(=O)C3)c2)n[nH]c(=O)c1C [Example 112, 6-[4-Fluoro-3-({3-oxo-4-[(3R)-tetrahydrofuran-3-yl]piperazin-1-yl}carbonyl)benzyl]-4,5-dimethylpyridazin-3(2H)-one] | < 5000 nM |
| Cc1c(Cc2ccc(F)c(C(=O)N3CC(=O)N(c4ccc(F)c(Cl)c4)[C@H](C)C3)c2)n[nH]c(=O)c1C [Example 199, 6-(3-{[(3R)-4-(3-Chloro-4-fluorophenyl)-3-methyl-5-oxopiperazin-1-yl]carbonyl}-4-fluorobenzyl)-4,5-dimethylpyridazin-3(2H)-one] | < 50 nM |
| CCc1c(Cc2ccc(F)c(C(=O)N3CCN(C4CCCCC4)C(=O)C3)c2)n[nH]c(=O)c1C [Example 28, 3-{3-[(4-Cyclohexyl-3-oxopiperazin-1-yl)carbonyl]-4-fluorobenzyl}-4-ethyl-5-methyl-6-oxo-1,6-dihydropyridazin-1-ium trifluoroacetate] | 50 to 500 nM |
| Cc1c(Cc2ccc(F)c(C(=O)N3CCN(C4CCCOC4)C(=O)C3)c2)n[nH]c(=O)c1C (stereo not drawn) [Example 47, 6-(4-Fluoro-3-{[3-oxo-4-(tetrahydro-2H-pyran-3-yl)piperazin-1-yl]carbonyl}benzyl)-4,5-dimethyl-3-oxo-2,3-dihydropyridazin-1-ium trifluoroacetate] | 50 to 500 nM |
| Cc1c(Cc2ccc(F)c(C(=O)N3CC(=O)N4CCCC[C@H]4C3)c2)n[nH]c(=O)c1C [Example 89, (9aS)-2-{5-[(4,5-Dimethyl-6-oxo-1,6-dihydropyridazin-3-yl)methyl]-2-fluorobenzoyl}octahydro-4H-pyrido[1,2-a]pyrazin-4-one trifluoroacetate] | < 5000 nM |
| Cc1c(Cc2ccc(F)c(C(=O)N3CCN(c4ccccc4)C(=O)C3)c2)n[nH]c(=O)c1C [Example 1, 6-{4-Fluoro-3-[(3-oxo-4-phenylpiperazin-1-yl)carbonyl]benzyl}-4,5-dimethyl-3-oxo-2,3-dihydropyridazin-1-ium trifluoroacetate] | < 50 nM |
| Cc1c(Cc2ccc(F)c(C(=O)N3CC(=O)N(c4cccc(Cl)c4)[C@@H](C)C3)c2)n[nH]c(=O)c1C [Example 177, 6-(3-{[(3S)-4-(3-Chlorophenyl)-3-methyl-5-oxopiperazin-1-yl]carbonyl}-4-fluorobenzyl)-4,5-dimethylpyridazin-3(2H)-one] | < 50 nM |
| Cc1c(Cc2ccc(F)c(C(=O)N3CC(=O)N(C4CCCOC4)C(C)C3)c2)n[nH]c(=O)c1C (stereo not drawn) [Example 129, 6-(4-Fluoro-3-{[3-methyl-5-oxo-4-(tetrahydro-2h-pyran-3-yl)piperazin-1-yl]carbonyl}benzyl)-4,5-dimethylpyridazin-3(2H)-one trifluoroacetate] | 50 to 500 nM |
| CCC1CN(C(=O)c2cc(Cc3n[nH]c(=O)c(C)c3C)ccc2F)CC(=O)N1C1CCCC1 (stereo not drawn) [Example 186, 6-{3-[(4-Cyclopentyl-3-ethyl-5-oxopiperazin-1-yl)carbonyl]-4-fluorobenzyl}-4,5-dimethylpyridazin-3(2H)-one] | < 5000 nM |
| Cc1c(Cc2ccc(F)c(C(=O)N3CC(=O)N(c4ccc(C#N)cc4F)[C@H](C)C3)c2)n[nH]c(=O)c1C [Example 201, 4-((2R)-4-{5-[(4,5-Dimethyl-6-oxo-1,6-dihydropyridazin-3-yl)methyl]-2-fluorobenzoyl}-2-methyl-6-oxopiperazin-1-yl)-3-fluorobenzonitrile] | < 50 nM |
| Cc1c(Cc2ccc(F)c(C(=O)N3CC(=O)N(c4cccc(Cl)c4F)[C@H](C)C3)c2)n[nH]c(=O)c1C [Example 206, 6-(3-{[(3R)-4-(3-Chloro-2-fluorophenyl)-3-methyl-5-oxopiperazin-1-yl]carbonyl}-4-fluorobenzyl)-4,5-dimethylpyridazin-3(2H)-one] | < 50 nM |
| Cc1c(Cc2ccc(F)c(C(=O)N3CCN(C4CCC(c5ccccc5)CC4)C(=O)C3)c2)n[nH]c(=O)c1C (stereo not drawn) [Example 68, 6-(4-Fluoro-3-{[3-oxo-4-(4-phenylcyclohexyl)piperazin-1-yl]carbonyl}benzyl)-4,5-dimethyl-3-oxo-2,3-dihydropyridazin-1-ium trifluoroacetate] | < 50 nM |
| Cc1c(Cc2ccc(F)c(C(=O)N3CCN(c4ccc(F)c(F)c4)C(=O)C3)c2)n[nH]c(=O)c1C(F)(F)F [Example 26, 3-(3-{[4-(3,4-Difluorophenyl)-3-oxopiperazin-1-yl]carbonyl}-4-fluorobenzyl)-4-methyl-6-oxo-5-(trifluoromethyl)-1,6-dihydropyridazin-1-ium trifluoroacetate] | < 50 nM |
| Cc1c(Cc2ccc(F)c(C(=O)N3CC(=O)N(c4cc(F)cc(C#N)c4)[C@H](C)C3)c2)n[nH]c(=O)c1C [Example 202, 3-((2R)-4-{5-[(4,5-Dimethyl-6-oxo-1,6-dihydropyridazin-3-yl)methyl]-2-fluorobenzoyl}-2-methyl-6-oxopiperazin-1-yl)-5-fluorobenzonitrile] | < 50 nM |
| Cc1c(Cc2ccc(F)c(C(=O)N3CC(=O)N(C4CCC4)C(C)C3)c2)n[nH]c(=O)c1C (stereo not drawn) [Example 163, 6-{3-[(4-Cyclobutyl-3-methyl-5-oxopiperazin-1-yl)carbonyl]-4-fluorobenzyl}-4,5-dimethylpyridazin-3(2H)-one] | < 50 nM |
| Cc1c(Cc2ccc(F)c(C(=O)N3CCN(CC(C)(C)O)C(=O)C3)c2)n[nH]c(=O)c1C [Example 173, 6-(4-Fluoro-3-{[4-(2-hydroxy-2-methylpropyl)-3-oxopiperazin-1-yl]carbonyl}benzyl)-4,5-dimethylpyridazin-3(2H)-one] | < 5000 nM |
| Cc1cc(C)cc(N2CCN(C(=O)c3cc(Cc4n[nH]c(=O)c(C)c4C)ccc3F)CC2=O)c1 [Example 23, 6-(3-{[4-(3,5-Dimethylphenyl)-3-oxopiperazin-1-yl]carbonyl}-4-fluorobenzyl)-4,5-dimethylpyridazin-3(2H)-one trifluoroacetate] | 50 to 500 nM |
| Cc1c(Cc2ccc(F)c(C(=O)N3CCN(C4CCc5ccccc54)C(=O)C3)c2)n[nH]c(=O)c1C (stereo not drawn) [Example 100, 6-(3-{[4-(2,3-dihydro-1H-inden-1-yl)-3-oxopiperazin-1-yl]carbonyl}-4-fluorobenzyl)-4,5-dimethyl-3-oxo-2,3-dihydropyridazin-1-ium trifluoroacetate] | < 50 nM |
| O=C(c1cc(Cc2cc(C(F)(F)F)c(=O)[nH]n2)ccc1F)N1CCN(C2CCCCC2)C(=O)C1 [Example 27, 6-{3-[(4-Cyclohexyl-3-oxopiperazin-1-yl)carbonyl]-4-fluorobenzyl}-3-oxo-4-(trifluoromethyl)-2,3-dihydropyridazin-1-ium trifluoroacetate] | 50 to 500 nM |
| Cc1c(Cc2ccc(F)c(C(=O)N3CC(=O)N([C@H]4CCOC4)[C@H](C)C3)c2)n[nH]c(=O)c1C (single isomer, unassigned) [75 (II4A)] | 50 to 500 nM |
| Cc1c(Cc2ccc(F)c(C(=O)N3CC(=O)N(c4ccc(Cl)c(F)c4)[C@@H](C)C3)c2)n[nH]c(=O)c1C [Example 208, 6-(3-{[(3S)-4-(4-Chloro-3-fluorophenyl)-3-methyl-5-oxopiperazin-1-yl]carbonyl}-4-fluorobenzyl)-4,5-dimethylpyridazin-3(2H)-one] | < 50 nM |
| CC[C@@H]1CN(C(=O)c2cc(Cc3n[nH]c(=O)c(C)c3C)ccc2F)CC(=O)N1C1CCC1 [Example 180, 6-(3-{[(3R)-4-Cyclobutyl-3-ethyl-5-oxopiperazin-1-yl]carbonyl}-4-fluorobenzyl)-4,5-dimethylpyridazin-3(2H)-one] | < 5000 nM |
| Cc1c(Cc2ccc(F)c(C(=O)N3CC(=O)N(C4CCC4)[C@H](C)C3)c2)n[nH]c(=O)c1C [Example 175, 6-(3-{[(3R)-4-Cyclobutyl-3-methyl-5-oxopiperazin-1-yl]carbonyl}-4-fluorobenzyl)-4,5-dimethylpyridazin-3(2H)-one] | < 50 nM |
| Cc1c(Cc2ccc(F)c(C(=O)N3CC(=O)N(C(c4ccccc4)C(F)F)C(C)C3)c2)n[nH]c(=O)c1C (stereo not drawn) [Example 131, 6-(3-{[4-(2,2-Difluoro-1-phenylethyl)-3-methyl-5-oxopiperazin-1-yl]carbonyl}-4-fluorobenzyl)-4,5-dimethylpyridazin-3(2H)-one trifluoroacetate] | < 50 nM |
| Cc1c(Cc2ccc(F)c(C(=O)N3CC(=O)N(c4cc(Cl)ccc4F)[C@H](C)C3)c2)n[nH]c(=O)c1C [Example 205, 6-(3-{[(3R)-4-(5-Chloro-2-fluorophenyl)-3-methyl-5-oxopiperazin-1-yl]carbonyl}-4-fluorobenzyl)-4,5-dimethylpyridazin-3(2H)-one] | < 50 nM |
| C[C@H]1CCC[C@H]2CN(C(=O)c3cc(Cc4cc(C(F)(F)F)c(=O)[nH]n4)ccc3F)CC(=O)N21 (single isomer, unassigned) [88 (VV1)] | < 50 nM |
| Cc1c(Cc2ccc(F)c(C(=O)N3CCN(C4CCCC(c5ccccc5)C4)C(=O)C3)c2)n[nH]c(=O)c1C (stereo not drawn) [Example 66, 6-(4-Fluoro-3-{[3-oxo-4-(3-phenylcyclohexyl)piperazin-1-yl]carbonyl}benzyl)-4,5-dimethyl-3-oxo-2,3-dihydropyridazin-1-ium trifluoroacetate] | 50 to 500 nM |
